Source: paper PMC7600788, “Sequence Permutation Generates Peptides with Different Antimicrobial and Antibiofilm Activities” (Pharmaceuticals, 2020)
Like-named read-outs stand apart in the source and are kept apart here. No end group written: not given here.

Experiments:
S. aureus USA300 = type: cell-based, Staphylococcus aureus
Protocol: (§1) The antibacterial activity of peptides was evaluated using a standard broth microdilution protocol with minor modifications as previously described. In brief, logarithmic phase bacterial cultures (i.e., optical density at 600 nm ≈ 0.5) were diluted to OD600~0.001 and partitioned into a 96-well polystyrene microplate at 90 μL per well. After treatment with 10 μL of peptide solutions two-fold diluted to various concentrations, microplates were incubated at 37 °C overnight and read on a ChroMate 4300 Microplate Reader at 630 nm (GMI, Ramsey, MN). […] Minimal bactericidal concentration (MBC) was determined by plating the clear wells at MIC or above. The peptide concentration that caused no bacterial growth on the petri dish is MBC.

E. coli ATCC 25922 = type: cell-based, Escherichia coli
Protocol: (§2) To gain additional insight, we also compared the effects of physiological saline and human serum on the antibacterial activities of WW291-WW298 using both E. coli and S. aureus (Table 3). In our assays, salts and serum were present during the entire course of the experiment. […] Thus, WW295 and WW298 stand out in terms of activity robustness (bold in Table 3).
as §1

[1] = test system: monkey kidney Vero E6 cells; type: cell-based
Protocol: Peptides were assayed for potential in vitro toxicity against human keratinocytes (HaCaT) and THP-1 cells as previously described. THP-1 monocytes were differentiated into macrophages by adding 30 ng/mL of phorbol 12-myristate 13-acetate (PMA; Sigma-Aldrich) to RPMI 1640 supplemented with 10% fetal calf serum culture (FCS) medium for 16 h. Briefly, cells were seeded at a density of 3 × 10^4 per well in a tissue culture 96-well plate in DMEM/RPMI supplemented with 10% fetal bovine serum (FBS), and incubated at 37 °C in a 5% CO2 atmosphere for 24 h. African green monkey kidney Vero E6 cells were cultivated in EMEM in the same manner. Before antimicrobial treatment, wells were replaced with serum free media and treated with peptides at different concentrations for one hour. After incubation, the cells were washed and incubated with 100 μL of DMEM media containing 20 μL of 3-(4,5-dimethylthiazol-2-yl)-5-(3-carboxymethoxyphenyl)-2-(4-sulfophenyl)-2H-tetrazolium (MTS) reagent for two hours at 37 °C. […] Absorbance readings at 492 nm were taken using a ChroMate microplate reader (GMI, Ramsey, MN, USA).

P. aeruginosa PAO1 = type: cell-based, Pseudomonas aeruginosa
Protocol: (§3) The antimicrobial activity spectrum of the WW peptide series was performed on a panel of Gram-positive and -negative bacteria using the standard broth micro-dilution method with minor modifications as described. […] There was a small change in the case of Pseudomonas aeruginosa and Acinetobacter baumannii up to two-fold. Four-fold changes were found for Staphylococcus aureus, Staphylococcus epidermidis, Escherichia coli, and Bacillus subtilis. However, we observed over eight-fold MIC changes for Klebsiella pneumoniae and vancomycin-resistant enterococcus (VRE). […] We also observed more than eight-fold changes in minimal bacterial killing concentrations.
as §1

E. faecium VRE = type: cell-based
Protocol: as §3, §1

A. baumannii B28-16 = type: cell-based, Acinetobacter baumannii
Protocol: as §3, §1

Pig RBC = test: Hemolytic assay; type: cell-based
Protocol: (§4) Hemolytic assays of peptides were performed as previously described. Briefly, human red blood cells (hRBCs) obtained from UNMC Blood Bank, or chicken or porcine blood cells purchased from commercial sources as previously described, were washed three times with phosphate buffer saline (PBS) and diluted to a 2% solution (V/v). After peptide treatment, incubation at 37 °C for one hour, and centrifugation at 13,000 rpm, aliquots of the supernatant were carefully transferred to a fresh 96-well microplate. The amount of hemoglobin released was measured at 545 nm. The percent lysis was calculated by assuming 100% release when human blood cells were treated with 2% Triton X-100, and 0% release when incubated with PBS buffer. The peptide concentration that caused 50% lysis of hRBCs is defined as HC50.

chicken red blood cells = test: Hemolytic assay; type: cell-based
Protocol: as §4

human red blood cells = test: Hemolytic assay; type: cell-based
Protocol: as §4

B. subtilis 167 = type: cell-based, Bacillus subtilis
Protocol: as §3, §1

E. coli K12 = type: cell-based, Escherichia coli
Protocol: as §3, §1

[2] = test system: human keratinocytes (HaCaT); test: MTS cytotoxicity assay; type: cell-based; details: serum free media, one hour treatment
Protocol: (§5) Peptides were assayed for potential in vitro toxicity against human keratinocytes (HaCaT) and THP-1 cells as previously described. THP-1 monocytes were differentiated into macrophages by adding 30 ng/mL of phorbol 12-myristate 13-acetate (PMA; Sigma-Aldrich) to RPMI 1640 supplemented with 10% fetal calf serum culture (FCS) medium for 16 h. Briefly, cells were seeded at a density of 3 × 10^4 per well in a tissue culture 96-well plate in DMEM/RPMI supplemented with 10% fetal bovine serum (FBS), and incubated at 37 °C in a 5% CO2 atmosphere for 24 h. African green monkey kidney Vero E6 cells were cultivated in EMEM in the same manner. Before antimicrobial treatment, wells were replaced with serum free media and treated with peptides at different concentrations for one hour. After incubation, the cells were washed and incubated with 100 μL of DMEM media containing 20 μL of 3-(4,5-dimethylthiazol-2-yl)-5-(3-carboxymethoxyphenyl)-2-(4-sulfophenyl)-2H-tetrazolium (MTS) reagent for two hours at 37 °C. The treatment time was one hour in the case of Vero E6 cells. Absorbance readings at 492 nm were taken using a ChroMate microplate reader (GMI, Ramsey, MN, USA).

[3] = test system: PMA differentiated THP-1 cells; test: MTS cytotoxicity assay; type: cell-based; details: PMA differentiated THP-1, serum free media, one hour treatment
Protocol: as §5

S. aureus Mu50 = type: cell-based, Staphylococcus aureus
Protocol: as §3, §1

S. aureus USA300 LAC = type: cell-based, Staphylococcus aureus
Protocol: as §2, §1

[4] = 2% RBC in PBS, 37 °C, one hour, hemoglobin at 545 nm

Row | Sequence | HaCaT, concentration that caused 50% cell death (LC50) [2] [µM] | THP-1, concentration that caused 50% cell death (LC50) [3] [µM] | MBC, USA300 (S. aureus USA300; USA300) [µM] | MIC, +150 mM NaCl (E. coli ATCC 25922; ATCC 25922) [µM] | MIC, +10% Human Serum (E. coli ATCC 25922; ATCC 25922) [µM] | MIC, TSB (E. coli ATCC 25922; ATCC 25922) [µM] | Vero Cells, concentration that caused 50% cell death (LC50) [1] [µM] | Minimal Inhibitory Concentration (MIC), PA (P. aeruginosa PAO1; PAO1) [µM] | Minimal Inhibitory Concentration (MIC), VRE (E. faecium VRE; VRE) [µM] | Minimal Inhibitory Concentration (MIC), AB (A. baumannii B28-16; B28-16) [µM] | Pig RBC, concentration that caused 50% red blood cell lysis (HC50) (Pig RBC) [µM] | Chicken RBC, concentration that caused 50% red blood cell lysis (HC50) (chicken red blood cells) [µM] | Human RBC, concentration that caused 50% red blood cell lysis (HC50) (human red blood cells; red cells of human) [µM] | Minimal Inhibitory Concentration (MIC), BS (B. subtilis 167; 167) [µM] | Minimal Inhibitory Concentration (MIC), EC (E. coli K12; K12) [µM] | Minimal Inhibitory Concentration (MIC), SA (S. aureus Mu50; Mu50) [µM] | MIC, +150 mM NaCl (S. aureus USA300 LAC; USA300) [µM] | MIC, TSB (S. aureus USA300 LAC; USA300) [µM] | MIC, +10% Human Serum (S. aureus USA300 LAC; USA300) [µM] | other results
1 | IWWWWLRK [WW297] | 100 | 38 |  |  |  |  |  |  |  |  |  |  |  |  |  |  |  |  |  | MBC, USA300 (S. aureus USA300; S. aureus USA300, minimal bactericidal concentration, plating clear wells at MIC or above): 12.5 µM; MIC, TSB (E. coli ATCC 25922; E. coli ATCC 25922, TSB): 12.5 µM; MIC, +150 mM NaCl (E. coli ATCC 25922; E. coli ATCC 25922, TSB +150 mM NaCl, present during entire experiment): 12.5 µM; MIC, +10% Human Serum (E. coli ATCC 25922; E. coli ATCC 25922, TSB +10% human serum, present during entire experiment): >25 µM; Vero Cells, concentration that caused 50% cell death (LC50) ([1]; Vero E6, serum free media, one hour treatment, MTS assay): >100 µM; Minimal Inhibitory Concentration (MIC), PA (P. aeruginosa PAO1; P. aeruginosa PAO1, broth microdilution, 37 °C overnight): 50 µM; Minimal Inhibitory Concentration (MIC), VRE (E. faecium VRE; E. faecium VRE, broth microdilution, 37 °C overnight): 12.5 µM; Minimal Inhibitory Concentration (MIC), AB (A. baumannii B28-16; A. baumannii B28-16, broth microdilution, 37 °C overnight): 6.25 to 12.5 µM; Pig RBC, concentration that caused 50% red blood cell lysis (HC50) (Pig RBC; [4]): 110 µM; Chicken RBC, concentration that caused 50% red blood cell lysis (HC50) (chicken red blood cells; [4]): 100 µM; Human RBC, concentration that caused 50% red blood cell lysis (HC50) (human red blood cells; [4]): 134 µM; Minimal Inhibitory Concentration (MIC), BS (B. subtilis 167; B. subtilis 167, broth microdilution, 37 °C overnight): 12.5 µM; Minimal Inhibitory Concentration (MIC), EC (E. coli K12; E. coli K12, broth microdilution, 37 °C overnight): 12.5 to 25 µM; Minimal Inhibitory Concentration (MIC), SA (S. aureus Mu50; S. aureus Mu50, broth microdilution, 37 °C overnight): 6.2 µM; MIC, TSB (S. aureus USA300 LAC; S. aureus USA300 LAC, TSB): 3.1 µM; MIC, +150 mM NaCl (S. aureus USA300 LAC; S. aureus USA300 LAC, TSB +150 mM NaCl, present during entire experiment): 3.1 µM; MIC, +10% Human Serum (S. aureus USA300 LAC; S. aureus USA300 LAC, TSB +10% human serum, present during entire experiment): 25 µM
2 | KIWWWWLR [WW296] | 100 | 35 | 6.2 | 25 | >25 | 3.1 to 6.2 | >100 | 50 | 25 | 12.5 | >100 | 50 | 103 | 12.5 | 6.2 to 12.5 | 3.1 | 1.6 | 1.6 |  | 
3 | LRKIWWWW [WW294] | >100 | >100 | 25 | 25 | >25 | 12.5 | >100 | 50 | 25 | 12.5 | >100 | >100 | 143 | 25 | 12.5 | 12.5 | 6.2 | 6.2 | 25 | 
4 | WLRKIWWW [WW293] | >100 | >100 | 25 | >25 | >25 | 12.5 | >100 | 50 | 50 | 12.5 | >100 | >100 | 224 | 12.5 | 12.5 to 25 | 12.5 | 6.2 | 6.2 | >25 | 
5 | WWLRKIWW [WW292] | >100 | >100 | >25 | >25 | >25 | 12.5 | >100 | 25 | >50 | 12.5 | >100 | >100 | 175 | 12.5 | 25 | 12.5 | 6.2 | 6.2 | >25 | 
6 | WWWWLRKI [WW298] | 80 | 30 | 3.1 | 12.5 | >25 | 12.5 | 100 | 50 | 12.5 | 6.25 to 12.5 | 37 | 70 | 52 | 6.25 to 12.5 | 12.5 | 3.1 | 1.6 | 1.6 | 12.5 to 25 | 
